Like-named read-outs stand apart in the source and are kept apart here.
What was measured:
Type in all cases: cell-based, human
[1] = system: non-senescent WI-38 cells (NC); test: Cell viability (PI flow cytometry), LD50 in non-senescent WI-38 cells; details: for CC50: WI-38 fibroblasts, non-senescent, LD50 by Probit Analysis, read-out: LD50 (μM) for non-senescent cells (NC)
Description: (§1) Mouse embryonic fibroblasts (MEF) were isolated from mouse embryos as described^1. All cells were cultured in a complete medium (CM) (Dulbecco's Modified Eagle Medium supplemented with 10% fetal bovine serum [FBS], 100 U/ml penicillin, and 100 μg/ml streptomycin [all from Atlanta Biologicals, Norcross, Ga., and USA]) in a humidified incubator at 37° C. and 5% CO2. Low passages of WI-38 cells (<25), IMR-90 (<25), REC cells (<25) and MEF (<3) were used as non-senescent controls or for induction of senescence to avoid replicative senescence. […] To induce senescence by expression of oncogenic Ras (Ras^V12), WI-38 cells were infected with the retroviruses pBabe-H-Ras or pBabe-puro (control) (Addgene, Cambridge, Mass., UAS)^2, 3. […] Senescent cells were maintained in culture for a few days, changing the culture medium every 3 days until use. For in vitro cell culture experiments, we usually repeated the experiments for at least three times to ensure the reproducibility of the data. In addition, the repeats of the experiments for three times will allow us to obtain 3 independent observations for statistical analysis.
(§2) Flow cytometry: Non-senescent and senescent cells were seeded into wells of 24- or 48-well at about 70% of confluence. […] Both quiescent non-senescent cells and permanently growth arrested senescent cells were treated with vehicle (0.1% DMSO or PBS) or increasing concentrations of the compounds listed in Table 1 for various durations. […] After incubated with propidium iodide (PI 100 ng/ml) in PBS at room temperature for 1 min, cells were centrifuged at 1200 rpm for 6 min and then resuspended in PBS with 2% of FBS for analysis by a BD LSR II flow cytometer (BD Biosciences, San Jose, Calif., USA). Viable cells (PI^− cells) were numerated by flow cytometry at a constant flow rate and calculated as a percentage of control cells treated with vehicle using the formula: percentage of control=(Ndrug/NC)×100, where Ndrug and NC represent the absolute number of PI^− viable cells of drug-treated and vehicle-treated cells, respectively.
(§3) MTT (3-[4,5-dimethylthiazol-2-yl]-2,5 diphenyl tetrazolium bromide) assay: Cells were harvested, washed and resuspended in CM and added to wells of 24- or 48-well plates as described above. […] After 4 h at 37° C., the formazan was solubilized by lysing the cells with 300 μl of DMSO. Absorbance of formazan was measured at 595 nm using a Microplate Reader (BioTek, Winooski, Vt., USA). Cell viability was calculated in the method as previously described^4.
(§4) Trypan blue exclusion assay: Cells were harvested, washed and resuspended in CM and added to wells of a 6-well plate as described above. […] Living cells stained negative for trypan blue and were counted under light microscopy.
(§5) Briefly, Probit (set as y) was determined by looking up their correspondence to the % responded in Finney's table. The log of the compound concentrations was used as x. By fitting a line of regression, we produce the formula y=ax+b.

[2] = system: IR-induced senescent WI-38 cells (SC); test: Cell viability (PI flow cytometry), LD50 in IR-induced senescent WI-38 cells
Description: as §1, §2, §3, §4, §5

[3] = system: senescent WI38 cells induced by replicative exhaustion (Rep-SC); test: Cell viability, LD50 in replicative senescent WI-38 cells; details: Table 2
Description: Human WI-38 fibroblasts (WI38 cells, #CCL-75™), human IMR-90 fibroblasts (IMR90 cells, #CCL-186™), human renal epithelial cells (REC cells, #PCS-400-012™) were obtained from ACTT (Manassas, Va., USA). Mouse embryonic fibroblasts (MEF) were isolated from mouse embryos as described^1. All cells were cultured in a complete medium (CM) (Dulbecco's Modified Eagle Medium supplemented with 10% fetal bovine serum [FBS], 100 U/ml penicillin, and 100 μg/ml streptomycin [all from Atlanta Biologicals, Norcross, Ga., and USA]) in a humidified incubator at 37° C. and 5% CO2. Low passages of WI-38 cells (<25), IMR-90 (<25), REC cells (<25) and MEF (<3) were used as non-senescent controls or for induction of senescence to avoid replicative senescence. To induce replicative senescence, WI-38 cells were subcultivated until cell division ceased after about 38 passages or 60 population doublings (FIG. 5)^2. […]
Flow cytometry: Non-senescent and senescent cells were seeded into wells of 24- or 48-well at about 70% of confluence. […] Viable cells (PI^− cells) were numerated by flow cytometry at a constant flow rate and calculated as a percentage of control cells treated with vehicle using the formula: percentage of control=(Ndrug/NC)×100, where Ndrug and NC represent the absolute number of PI^− viable cells of drug-treated and vehicle-treated cells, respectively. […]

CC1(C)CCC(c2ccc(Cl)cc2)=C(CN2CCN(c3ccc(C(=O)NS(=O)(=O)c4ccc(N[C@H](CCN5CCOCC5)CSc5ccccc5)c(S(=O)(=O)C(F)(F)F)c4)cc3)CC2)C1 [ABT263, navitoclax]
CC50 ([1]; Homo sapiens): 12.6 µM
LD50 ([1]; Table 2, NC WI38 cells): 12.60 µM
CC50 [1]: 12.60 µM
viable cells by MTT assay and trypan blue exclusion test ([1]; non-senescent WI-38, increasing concentrations, 72 h): is not cytotoxic to non-senescent WI-38 cells
IC50 ([2]; Homo sapiens, WI-38 fibroblasts, IR-induced senescent, LD50 by Probit Analysis, read-out: LD50 (μM) for senescent cells (SC)): 0.61 µM
LD50 ([2]; Table 2, IR-SC WI38 cells): 0.61 µM
viable cells by MTT assay and trypan blue exclusion test ([2]; senescent WI-38, increasing concentrations, 72 h): can dose-dependently kill senescent WI-38 fibroblasts
SCs killed ([2]; ~24 h, 1.25 μM ABT263, IR-SC WI-38): 70-80%
LD50 [3]: 1.45 µM
